From article PMC11912475 (Journal of Medicinal Chemistry, 2025)

What was measured:
[1] = molecular target: GluN1-GluN2A NMDAR subtype (Homo sapiens, UniProt Q05586+Q12879); assay: FLIPR/Ca2+ assay, NMDAR GluN1-GluN2A subtype in CHO cells; type: cell-based; settings: CHO cells, 10 μM L-glutamate and 10 μM glycine; n.d. = 50% of inhibition could not be reached at the highest concentration used
Summary of the method: (§1)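 Fluo-4-loaded CHO cells (with probenecid and 500 μM ketamine during loading) stimulated with 10 μM L-glutamate plus 10 μM glycine added together with compounds, in HEPES buffer pH 7.3 with 2 mM CaCl2.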

Histamine H1 = molecular target: T1, Histamine H1 (Homo sapiens, UniProt P35367); assay: Radioligand displacement binding assay, [3H]pyrilamine, H1
T1 construct: host or cells: CHO-K1

Serotonin 5-HT2A = molecular target: T2, Serotonin 5-HT2A (Homo sapiens, UniProt P28223); assay: Radioligand displacement binding assay, [3H]ketanserin, 5-HT2A
T2 construct: host or cells: CHO-K1

Serotonin 5-HT7 = molecular target: T3, Serotonin 5-HT7 (Homo sapiens, UniProt P34969); assay: Radioligand displacement binding assay, [3H]LSD, 5-HT7
T3 construct: host or cells: CHO-K1

Muscarinic M5 = molecular target: T4, Muscarinic M5 (Homo sapiens, UniProt P08912); assay: Radioligand displacement binding assay, [3H]N-methylscopolamine, M5
T4 construct: host or cells: CHO-K1
T4 sequence (P08912 1-532): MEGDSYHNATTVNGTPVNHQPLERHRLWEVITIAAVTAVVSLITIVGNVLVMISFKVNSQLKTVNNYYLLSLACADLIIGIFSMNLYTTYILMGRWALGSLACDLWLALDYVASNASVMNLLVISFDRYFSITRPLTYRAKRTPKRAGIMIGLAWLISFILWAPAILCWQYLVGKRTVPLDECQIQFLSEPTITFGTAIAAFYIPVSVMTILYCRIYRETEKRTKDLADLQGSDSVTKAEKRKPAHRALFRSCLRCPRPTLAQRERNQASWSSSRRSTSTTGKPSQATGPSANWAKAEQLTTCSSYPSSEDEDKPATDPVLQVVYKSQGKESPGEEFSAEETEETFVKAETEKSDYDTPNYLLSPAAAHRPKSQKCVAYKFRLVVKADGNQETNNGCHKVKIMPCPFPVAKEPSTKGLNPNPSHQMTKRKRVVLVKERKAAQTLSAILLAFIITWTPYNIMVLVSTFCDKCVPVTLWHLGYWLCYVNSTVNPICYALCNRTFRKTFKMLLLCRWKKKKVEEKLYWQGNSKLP

Serotonin 5-HT5A = molecular target: T5, Serotonin 5-HT5A (Homo sapiens, UniProt P47898); assay: Radioligand displacement binding assay, [3H]LSD, 5-HT5A
T5 construct: host or cells: CHO-K1

Serotonin 5-HT2C = molecular target: T6, Serotonin 5-HT2C (Homo sapiens, UniProt P28335); assay: Radioligand displacement binding assay, [3H]mesulergine, 5-HT2C
T6 construct: host or cells: CHO-K1
T6 sequence (P28335 33-458): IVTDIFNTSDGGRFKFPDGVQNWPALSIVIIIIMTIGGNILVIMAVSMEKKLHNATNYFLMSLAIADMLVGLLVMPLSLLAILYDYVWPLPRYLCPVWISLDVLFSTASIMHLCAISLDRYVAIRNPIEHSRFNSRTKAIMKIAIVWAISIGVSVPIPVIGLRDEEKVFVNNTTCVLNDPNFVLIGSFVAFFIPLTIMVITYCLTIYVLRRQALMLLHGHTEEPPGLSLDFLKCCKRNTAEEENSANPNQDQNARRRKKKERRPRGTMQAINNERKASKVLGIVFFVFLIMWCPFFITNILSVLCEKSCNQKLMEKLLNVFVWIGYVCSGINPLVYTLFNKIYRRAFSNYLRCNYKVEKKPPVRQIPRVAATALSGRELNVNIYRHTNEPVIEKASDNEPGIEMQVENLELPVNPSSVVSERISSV

[2] = molecular target: GluN1-GluN2D NMDAR subtype (Homo sapiens, UniProt O15399+Q05586); assay: FLIPR/Ca2+ assay, NMDAR GluN1-GluN2D subtype in CHO cells; type: cell-based; settings: CHO cells, 10 μM L-glutamate and 10 μM glycine; n.d. = 50% of inhibition could not be reached at the highest concentration used
Summary of the method: as §1

Serotonin 5-HT1A = molecular target: T7, Serotonin 5-HT1A (Homo sapiens, UniProt P08908); assay: Radioligand displacement binding assay, [3H]8-OH-DPAT, 5-HT1A
T7 construct: host or cells: CHO-K1
T7 sequence (P08908 1-422): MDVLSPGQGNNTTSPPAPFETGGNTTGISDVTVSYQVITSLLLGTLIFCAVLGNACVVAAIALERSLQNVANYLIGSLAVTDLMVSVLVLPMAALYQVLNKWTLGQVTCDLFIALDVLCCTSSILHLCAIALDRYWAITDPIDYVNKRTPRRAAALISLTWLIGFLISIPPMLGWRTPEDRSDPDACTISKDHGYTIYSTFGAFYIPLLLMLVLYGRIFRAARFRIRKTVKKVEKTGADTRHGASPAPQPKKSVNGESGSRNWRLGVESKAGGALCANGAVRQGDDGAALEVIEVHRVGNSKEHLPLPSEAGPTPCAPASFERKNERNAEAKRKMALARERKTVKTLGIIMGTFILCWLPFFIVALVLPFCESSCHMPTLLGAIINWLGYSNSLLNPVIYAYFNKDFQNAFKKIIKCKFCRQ

[3] = molecular target: T8, Serotonin transporter SERT (Homo sapiens, UniProt P31645); assay: Radioligand displacement binding assay, [3H]paroxetine, SERT
T8 construct: host or cells: HEK-293

[4] = test system: Glutamate, NMDA, Phencyclidine binding site; assay: Radioligand displacement binding assay, [3H]TCP, NMDA; parameters: species or system Wistar rat
[5] = molecular target: T9, Norepinephrine transporter NET (Homo sapiens, UniProt P23975); assay: Radioligand displacement binding assay, [125I]RTI-55, NET
T9 construct: host or cells: MDCK

μ opioid receptor (MOP) = molecular target: T10, μ opioid receptor (MOP) (Homo sapiens, UniProt P35372); assay: biochemical; type: binding; settings: for inhibition at 0.3 µM / inhibition at 3 µM: read-out: % inhibition of binding, MOP
T10 construct: host or cells: CHO-K1

[6] = molecular target: GluN1-GluN2C NMDAR subtype (Homo sapiens, UniProt Q05586+Q14957); assay: FLIPR/Ca2+ assay, NMDAR GluN1-GluN2C subtype in CHO cells; type: cell-based; settings: CHO cells, 10 μM L-glutamate and 10 μM glycine; n.d. = 50% of inhibition could not be reached at the highest concentration used
Summary of the method: as §1

Sigma σ1 = molecular target: T11, Sigma σ1 (Homo sapiens, UniProt Q99720); assay: Radioligand displacement binding assay, [3H]pentazocine, sigma σ1
T11 construct: Sigma σ1; Source: Human Jurkat cells; host or cells: Jurkat

[7] = molecular target: T12, GluN1-GluN2B NMDAR subtype (Homo sapiens, UniProt Q05586+Q13224); assay: FLIPR/Ca2+ assay, NMDAR GluN1-GluN2B subtype in CHO cells; type: cell-based; settings: CHO cells, 10 μM L-glutamate and 10 μM glycine; n.d. = 50% of inhibition could not be reached at the highest concentration used
T12 construct: host or cells: NR1-2B-CHO cells, constitutive expression
Summary of the method: as §1

T10 sequence (P35372 whole entry): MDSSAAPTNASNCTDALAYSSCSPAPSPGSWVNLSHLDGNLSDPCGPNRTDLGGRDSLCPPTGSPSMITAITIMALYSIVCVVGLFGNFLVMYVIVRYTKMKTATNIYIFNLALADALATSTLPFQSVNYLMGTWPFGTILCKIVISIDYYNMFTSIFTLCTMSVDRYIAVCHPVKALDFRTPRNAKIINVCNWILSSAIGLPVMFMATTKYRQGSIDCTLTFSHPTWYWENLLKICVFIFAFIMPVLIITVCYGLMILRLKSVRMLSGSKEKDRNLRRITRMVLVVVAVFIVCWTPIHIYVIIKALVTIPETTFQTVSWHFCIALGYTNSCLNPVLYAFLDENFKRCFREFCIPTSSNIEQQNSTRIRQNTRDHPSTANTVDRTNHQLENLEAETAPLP
T9 sequence (P23975 whole entry): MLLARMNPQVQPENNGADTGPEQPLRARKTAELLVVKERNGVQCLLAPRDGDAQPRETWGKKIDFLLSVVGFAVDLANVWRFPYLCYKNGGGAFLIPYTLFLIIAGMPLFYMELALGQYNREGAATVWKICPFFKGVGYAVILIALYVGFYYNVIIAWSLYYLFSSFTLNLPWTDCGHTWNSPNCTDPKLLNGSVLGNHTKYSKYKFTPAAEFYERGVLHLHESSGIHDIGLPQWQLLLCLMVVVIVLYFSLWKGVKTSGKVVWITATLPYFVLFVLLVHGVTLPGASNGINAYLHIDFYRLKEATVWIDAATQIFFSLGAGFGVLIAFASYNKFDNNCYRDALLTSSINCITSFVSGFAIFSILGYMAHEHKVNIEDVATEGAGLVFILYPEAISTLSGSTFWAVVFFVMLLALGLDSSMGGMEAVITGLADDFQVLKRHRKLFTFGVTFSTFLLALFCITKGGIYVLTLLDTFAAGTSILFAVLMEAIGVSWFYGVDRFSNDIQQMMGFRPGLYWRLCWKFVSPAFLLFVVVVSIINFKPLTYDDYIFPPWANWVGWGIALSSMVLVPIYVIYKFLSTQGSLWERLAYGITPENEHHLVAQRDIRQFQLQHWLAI
T3 sequence (P34969 whole entry): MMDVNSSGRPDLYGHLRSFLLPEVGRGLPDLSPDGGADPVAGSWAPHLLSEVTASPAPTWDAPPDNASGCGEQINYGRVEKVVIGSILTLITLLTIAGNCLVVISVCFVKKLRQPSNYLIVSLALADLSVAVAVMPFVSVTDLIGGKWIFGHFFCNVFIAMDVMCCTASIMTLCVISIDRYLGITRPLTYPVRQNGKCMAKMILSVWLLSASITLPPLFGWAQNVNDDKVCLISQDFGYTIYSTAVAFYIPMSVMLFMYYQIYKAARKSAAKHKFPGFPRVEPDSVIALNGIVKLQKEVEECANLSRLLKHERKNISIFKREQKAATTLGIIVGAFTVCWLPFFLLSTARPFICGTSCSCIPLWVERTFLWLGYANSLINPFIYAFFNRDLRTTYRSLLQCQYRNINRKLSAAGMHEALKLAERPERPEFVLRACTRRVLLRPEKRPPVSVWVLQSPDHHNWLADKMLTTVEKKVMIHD
T8 sequence (P31645 whole entry): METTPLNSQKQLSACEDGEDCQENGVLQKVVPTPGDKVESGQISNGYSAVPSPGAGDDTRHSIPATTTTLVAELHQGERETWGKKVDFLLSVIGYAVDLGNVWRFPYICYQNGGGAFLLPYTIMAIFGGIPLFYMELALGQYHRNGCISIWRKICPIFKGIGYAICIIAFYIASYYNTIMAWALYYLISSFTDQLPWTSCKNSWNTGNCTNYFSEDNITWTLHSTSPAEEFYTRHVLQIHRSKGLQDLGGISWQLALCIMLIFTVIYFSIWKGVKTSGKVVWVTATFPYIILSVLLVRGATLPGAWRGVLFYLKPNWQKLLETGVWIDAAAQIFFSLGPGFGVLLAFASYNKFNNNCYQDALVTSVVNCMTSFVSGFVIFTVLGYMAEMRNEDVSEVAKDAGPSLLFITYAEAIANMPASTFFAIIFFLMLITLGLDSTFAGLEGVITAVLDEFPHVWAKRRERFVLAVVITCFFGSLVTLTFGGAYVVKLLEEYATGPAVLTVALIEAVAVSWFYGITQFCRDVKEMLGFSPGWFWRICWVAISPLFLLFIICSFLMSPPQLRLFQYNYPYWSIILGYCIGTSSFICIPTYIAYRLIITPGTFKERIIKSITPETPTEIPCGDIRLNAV
T2 sequence (P28223 whole entry): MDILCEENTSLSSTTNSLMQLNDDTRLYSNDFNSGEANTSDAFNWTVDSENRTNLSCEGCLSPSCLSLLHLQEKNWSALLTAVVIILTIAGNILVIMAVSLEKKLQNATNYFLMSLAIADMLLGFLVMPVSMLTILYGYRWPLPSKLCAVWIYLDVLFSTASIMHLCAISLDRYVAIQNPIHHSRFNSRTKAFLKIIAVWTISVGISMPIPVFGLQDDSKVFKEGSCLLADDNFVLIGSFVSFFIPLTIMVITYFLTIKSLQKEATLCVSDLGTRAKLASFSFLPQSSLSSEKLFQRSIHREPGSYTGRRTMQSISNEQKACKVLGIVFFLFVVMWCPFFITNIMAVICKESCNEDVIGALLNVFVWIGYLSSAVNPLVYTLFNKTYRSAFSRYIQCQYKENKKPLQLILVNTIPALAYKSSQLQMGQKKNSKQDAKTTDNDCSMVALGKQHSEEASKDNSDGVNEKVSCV
T11 sequence (Q99720 whole entry): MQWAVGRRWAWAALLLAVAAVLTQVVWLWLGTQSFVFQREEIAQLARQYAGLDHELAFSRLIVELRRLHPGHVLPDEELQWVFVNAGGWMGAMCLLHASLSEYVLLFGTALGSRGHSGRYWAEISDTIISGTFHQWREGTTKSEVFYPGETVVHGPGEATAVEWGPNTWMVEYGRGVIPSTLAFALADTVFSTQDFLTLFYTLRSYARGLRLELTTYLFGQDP
T1 sequence (P35367 whole entry): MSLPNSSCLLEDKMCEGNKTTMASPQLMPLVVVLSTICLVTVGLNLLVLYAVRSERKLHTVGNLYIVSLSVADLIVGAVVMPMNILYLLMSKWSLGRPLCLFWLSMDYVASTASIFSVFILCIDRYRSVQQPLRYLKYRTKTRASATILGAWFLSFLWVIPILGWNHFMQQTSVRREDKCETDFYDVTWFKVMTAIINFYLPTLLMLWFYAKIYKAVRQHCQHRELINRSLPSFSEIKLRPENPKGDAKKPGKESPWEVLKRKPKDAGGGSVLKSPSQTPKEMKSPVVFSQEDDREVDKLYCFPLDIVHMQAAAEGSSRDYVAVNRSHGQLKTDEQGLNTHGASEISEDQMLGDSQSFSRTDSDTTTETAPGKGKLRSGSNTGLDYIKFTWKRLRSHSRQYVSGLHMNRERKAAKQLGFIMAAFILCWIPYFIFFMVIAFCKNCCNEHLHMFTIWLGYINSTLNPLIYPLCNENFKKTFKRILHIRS
T5 sequence (P47898 whole entry): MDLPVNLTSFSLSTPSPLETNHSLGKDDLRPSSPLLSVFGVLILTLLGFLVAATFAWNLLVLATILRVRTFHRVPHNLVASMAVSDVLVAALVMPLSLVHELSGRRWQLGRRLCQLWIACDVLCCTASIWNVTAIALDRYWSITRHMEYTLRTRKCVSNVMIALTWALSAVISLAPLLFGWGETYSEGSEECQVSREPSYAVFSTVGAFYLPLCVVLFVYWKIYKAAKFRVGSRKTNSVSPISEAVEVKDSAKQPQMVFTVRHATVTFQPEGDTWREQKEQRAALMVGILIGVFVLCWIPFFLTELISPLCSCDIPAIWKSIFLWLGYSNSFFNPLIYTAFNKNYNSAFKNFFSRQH
GluN1-GluN2C NMDAR subtype, sequence (Q14957 20-1233, other chains not shown): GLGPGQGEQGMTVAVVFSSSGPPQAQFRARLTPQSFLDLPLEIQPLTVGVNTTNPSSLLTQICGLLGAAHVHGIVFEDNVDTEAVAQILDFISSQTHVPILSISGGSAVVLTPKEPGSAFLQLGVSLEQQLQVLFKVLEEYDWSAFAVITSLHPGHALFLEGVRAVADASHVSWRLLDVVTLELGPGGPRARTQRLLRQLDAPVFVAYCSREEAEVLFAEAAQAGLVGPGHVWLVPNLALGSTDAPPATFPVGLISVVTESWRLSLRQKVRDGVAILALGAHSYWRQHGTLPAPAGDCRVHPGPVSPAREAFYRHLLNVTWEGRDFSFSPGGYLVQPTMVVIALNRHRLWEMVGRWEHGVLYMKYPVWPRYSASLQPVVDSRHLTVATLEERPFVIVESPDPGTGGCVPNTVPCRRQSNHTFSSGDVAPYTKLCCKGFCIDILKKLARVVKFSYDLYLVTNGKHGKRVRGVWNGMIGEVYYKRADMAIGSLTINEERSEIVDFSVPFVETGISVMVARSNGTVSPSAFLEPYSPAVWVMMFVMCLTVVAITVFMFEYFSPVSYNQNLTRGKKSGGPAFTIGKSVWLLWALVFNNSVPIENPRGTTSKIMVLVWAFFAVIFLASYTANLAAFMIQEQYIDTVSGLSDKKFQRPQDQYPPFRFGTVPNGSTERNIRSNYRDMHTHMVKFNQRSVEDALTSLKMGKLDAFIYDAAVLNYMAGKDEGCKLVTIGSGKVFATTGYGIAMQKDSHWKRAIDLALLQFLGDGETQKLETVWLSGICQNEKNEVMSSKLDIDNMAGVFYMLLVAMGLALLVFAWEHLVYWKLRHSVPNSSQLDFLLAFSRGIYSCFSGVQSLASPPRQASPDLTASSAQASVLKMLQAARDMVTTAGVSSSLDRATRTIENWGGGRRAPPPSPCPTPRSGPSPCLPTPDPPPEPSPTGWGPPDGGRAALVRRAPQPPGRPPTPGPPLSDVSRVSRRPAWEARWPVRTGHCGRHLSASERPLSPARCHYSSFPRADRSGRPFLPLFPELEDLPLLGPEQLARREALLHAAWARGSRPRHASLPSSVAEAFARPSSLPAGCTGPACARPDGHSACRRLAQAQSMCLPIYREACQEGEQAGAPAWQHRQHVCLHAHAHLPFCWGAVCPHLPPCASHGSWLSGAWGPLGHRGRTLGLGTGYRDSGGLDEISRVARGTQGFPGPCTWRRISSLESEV

`CC[C@H](O)C(C[C@H](C)N)(c1ccccc1)c1ccccc1` [(3S,6S)-DNML, (3S,6S)-6-amino-4,4-diphenylheptan-3-ol] was tested, and the “pIC50 (mean ± SEM) GluN1-GluN2A” value [1] was 4.9 ± 0.081, the inhibition at 10 µM (Histamine H1) was 5% and the inhibition at 30 µM (Histamine H1) was 24%. It also gave an inhibition at 0.3 µM (Serotonin 5-HT2A) of 12%, an inhibition at 3 µM (Serotonin 5-HT2A) of 10% and an inhibition at 1 µM (Serotonin 5-HT7) of 5%. It also gave an inhibition at 10 µM (Serotonin 5-HT7) of 4%, an inhibition at 1 µM (Muscarinic M5) of 1% and an inhibition at 10 µM (Muscarinic M5) of 9%. It also gave an inhibition at 1 µM (Serotonin 5-HT5A) of -7%, an inhibition at 10 µM (Serotonin 5-HT5A) of -12% and an inhibition at 0.3 µM (Serotonin 5-HT2C) of 1%. For the same compound, the inhibition at 3 µM (Serotonin 5-HT2C) was 19%, the “pIC50 (mean ± SEM) GluN1-GluN2D” value [2] was 4.7 ± 0.079 and the inhibition at 0.3 µM (Serotonin 5-HT1A) was 24%. For the same compound, the inhibition at 3 µM (Serotonin 5-HT1A) was 15%, the inhibition at 1 µM [3] was 35% and the “% inhibition of binding, SERT” value ([3]; 10 μM) was “displaced”. For the same compound, the inhibition at 10 µM ([3]; 10 μM) was 82%, the “% inhibition of binding, NMDA” value ([4]; 1 μM) was 9% and the “% inhibition of binding, NMDA” value ([4]; 10 μM) was 36%. The inhibition at 1 µM [5] was -5%, the inhibition at 10 µM [5] was 3% and the inhibition at 0.3 µM (μ opioid receptor (MOP)) was 38%. For the same compound, the inhibition at 3 µM (μ opioid receptor (MOP)) was 84%, the “pIC50 (mean ± SEM) GluN1-GluN2C” value [6] was 4.7 ± 0.056 and the inhibition at 0.3 µM (Sigma σ1) was 46%. The inhibition at 3 µM (Sigma σ1) was 71% and the “pIC50 (mean ± SEM) GluN1-GluN2B” value [7] was 4.4 ± 0.13.

For `CC[C@H](O)C(C[C@H](C)NC)(c1ccccc1)c1ccccc1` [(3S,6S)-NML, (3S,6S)-6-(methylamino)-4,4-diphenylheptan-3-ol], the “pIC50 (mean ± SEM) GluN1-GluN2A” value [1] was 4.6 ± 0.062, the inhibition at 10 µM (Histamine H1) was 33% and the inhibition at 30 µM (Histamine H1) was 65%. The “displacement at the histamine H1 receptor, in words” value (Histamine H1; concentration not given) was “significant displacement percentages”, the inhibition at 0.3 µM (Serotonin 5-HT2A) was -10% and the inhibition at 3 µM (Serotonin 5-HT2A) was -11%. For the same compound, the inhibition at 1 µM (Serotonin 5-HT7) was 12%, the inhibition at 10 µM (Serotonin 5-HT7) was 23% and the inhibition at 1 µM (Muscarinic M5) was 2%. It also gave an inhibition at 10 µM (Muscarinic M5) of 15%, an inhibition at 1 µM (Serotonin 5-HT5A) of 1% and an inhibition at 10 µM (Serotonin 5-HT5A) of 10%. The inhibition at 0.3 µM (Serotonin 5-HT2C) was 5%, the inhibition at 3 µM (Serotonin 5-HT2C) was 28% and the “pIC50 (mean ± SEM) GluN1-GluN2D” value [2] was 4.6 ± 0.065. For the same compound, the inhibition at 0.3 µM (Serotonin 5-HT1A) was -4%, the inhibition at 3 µM (Serotonin 5-HT1A) was 1% and the inhibition at 1 µM [3] was 2%. For the same compound, the inhibition at 10 µM ([3]; 10 μM) was 25%, the “% inhibition of binding, NMDA” value ([4]; 1 μM) was 9% and the inhibition at 1 µM [5] was -12%. The inhibition at 10 µM [5] was 12%, the inhibition at 0.3 µM (μ opioid receptor (MOP)) was 65% and the inhibition at 3 µM (μ opioid receptor (MOP)) was 95%. The “displacement at the MOP, in words” value (μ opioid receptor (MOP); concentration not given) was “high displacement percentages”, the “pIC50 (mean ± SEM) GluN1-GluN2C” value [6] was 4.7 ± 0.042 and the inhibition at 0.3 µM (Sigma σ1) was 46%. The inhibition at 3 µM (Sigma σ1) was 77%, the “displacement at the Sigma-1 (σ1) receptor, in words” value (Sigma σ1; concentration not given) was “high displacement percentages” and the “pIC50 (mean ± SEM) GluN1-GluN2B” value [7] was 4.7 ± 0.080.
